According to publication PMC10625584, “Deciphering triterpenoid saponin biosynthesis by leveraging transcriptome response to methyl jasmonate elicitation in Saponaria vaccaria” (Nature Communications, 2023):

System: T1, SvCslG
T1 construct: gene CslG; codon-optimized CDS in pESC-URA; S. cerevisiae INVSc1 microsomal protein
Assay: LC-MS assay with yeast microsomal protein, Michaelis-Menten fit
Type: biochemical, Gypsophila vaccaria
Conditions: 20 mM Tris-HCl pH 8.0, 30 mM Mg2+, 30 °C

| Compound | Km (UDP-GlcA co-substrate) [µM] | Km (quillaic acid co-substrate) [µM] |
| --- | --- | --- |
| CC1(C)CC[C@]2(C(=O)O)[C@H](O)C[C@]3(C)C(=CC[C@@H]4[C@@]5(C)CC[C@H](O)[C@@](C)(C=O)[C@@H]5CC[C@]43C)[C@@H]2C1 [QA, quillaic acid] | 3.13 | – |
| O=C(O)[C@H]1O[C@H](OP(=O)(O)OP(=O)(O)OC[C@H]2O[C@@H](n3ccc(=O)[nH]c3=O)[C@H](O)[C@@H]2O)[C@H](O)[C@@H](O)[C@@H]1O [UDP-GlcA] | – | 65 |
